Measured values reported in patent publication US5442065A, “Synthesis of tetrahydroquinoline enediyne core analogs of dynemicin” (Board of Regents, The University of Texas System, priority 1993, dated 1995).

Tested on: M109 tumor cells
Test: M109 solid tumor assay, five injections every two days (compared with neocarzinostatin and esperamicin A1)
Type: in vivo, female mice
Conditions: for T/C value: reference compounds, dose not given; for lifespan and tumor growth delay (in words): standard compounds, solid tumor
Method: This assay involves development of a solid tumor in a mouse by injection of M109 tumor cells under the skin of the animal. Solid tumors, typically elliptical in shape, rapidly develop on the flank of the mouse at the site of injection. Progress of the tumor is determined by its size which is measured across each axis of the elongated mass. Straightforward computations of tumor volume combined with an assumed density of 1 g per cc yields a weight estimate which is accepted as an indication of the progress of tumor growth. Increase in lifespan (T/C values) of the animal and delay in tumor growth (T-C) to reach a predetermined size (typically measured as weight of the tumor) are generally accepted by those of skill in the art as endpoint parameters. […] In the particular M109 assay described and used to test the novel dynemicin analogs, the median time to establish a baseline tumor burden (arbitrarily set at 1 g tumor) was 4 days.
A standard M109 solid tumor assay was set up to compare compound 5582 and 4229 with neocarzinostatin and esperamicin A1. Female mice were injected subcutaneously with 0.1 mL of a 0.2% brei of M109 tumor cells, prepared from 2 g tumor per 100 mL PBS (phosphate buffered saline).
In another test, compounds 5582 and 4229 were evaluated in mice implanted with M109 on a 5 injection per day every two days schedule beginning on day 1 post implant and compared with SC tumored mice.

Molecule | T/C value [days] | lifespan and tumor growth delay (in words)
esperamicin A1 | 11 | increased lifespan and delay in tumor growth
neocarzinostatin: clinically tested compound; positive reference compound (protein, UniProt P0A3R9 35-147, looked up, enediyne chromophore) Neocarzinostatin: AAPTATVTPSSGLSDGTVVKVAGAGLQAGTAYDVGQCAWVDTGVLACNPADFSSVTADANGSASTSLTVRRSFEGFLFDGTRWGTVDCTTAACQVGLSDAAGNGPEGVAISFN | 19.3 | increased lifespan and delay in tumor growth
